Data published in article PMC2063102 (British Journal of Cancer, 1998).
“And” between values parts separate entries of the source, which are not always exact repeats. Identical values can stand only once.

Tests used:
Format in all cases: in vivo, C3H/HeN mice
MDAH-MCa-4 tumours [1] = test: Tumour necrosis / residual viable tissue scored histologically (H&E sections)
MDAH-MCa-4 tumours [2] = test: Tumour growth delay (time to reach 13 mm, treated minus control)
MDAH-MCa-4 tumours [3] = test: Tumour blood flow by 99mTc pertechnetate wash-out (clearance rate constant k); settings: for time course of tumour blood flow inhibition: agent alone: 5-HT 700 µmol kg-1, DMXAA 70 µmol kg-1

Structure (SMILES)	dose-modifying factor (DMF) for necrosis (DMXAA dose for 50% reduction of viable tissue) (MDAH-MCa-4 tumours [1]; 5-HT 700 µmol kg-1 co-administered with DMXAA, at 12 h)	necrotic fraction (MDAH-MCa-4 tumours [1]; 5-HT alone 700 µmol kg-1, 12 h (control 8.8%)) [%]	dose-modifying factor (DMF) for growth delay (DMXAA dose for 5-day growth delay) (MDAH-MCa-4 tumours [2]; 5-HT 700 µmol kg-1 co-administered with DMXAA)	Tumour growth delay, Expt 2 (MDAH-MCa-4 tumours [2]; single agent i.p.: bioreductive drug at its MTD, DMXAA 80 µmol kg-1, 5-HT 700 µmol kg-1, mean ± s.e.m.)	dose-modifying factor (DMF) for blood flow inhibition by DMXAA (MDAH-MCa-4 tumours [3]; 5-HT 700 µmol kg-1 co-administered with DMXAA, at 4 h)	effect on tumour blood flow at 4 h (MDAH-MCa-4 tumours [3]; 5-HT alone 700 µmol kg-1 i.p.)	time course of tumour blood flow inhibition (MDAH-MCa-4 tumours [3])	necrosis (MDAH-MCa-4 tumours [1]; DMXAA 60 µmol kg-1 and above co-administered with 5-HT 700 µmol kg-1, 12 h) [%]	threshold dose for the necrotizing effect (MDAH-MCa-4 tumours [1]; DMXAA alone i.p., 12 h)	doubling time of fraction of viable tissue after treatment (MDAH-MCa-4 tumours [1]; between 1 and 4 days after DMXAA 80 µmol kg-1) [days]	predicted growth delay (from regrowth of residual viable tissue) (MDAH-MCa-4 tumours [2]; mouse, in vivo)	time to maximal tumour blood flow inhibition (MDAH-MCa-4 tumours [3]; DMXAA 20 µmol kg-1 co-administered with 5-HT 700 µmol kg-1) [h]	DMXAA dose giving 50% inhibition of tumour blood flow (MDAH-MCa-4 tumours [3]; DMXAA alone i.p., 4 h after administration) [µmol/kg]	DMF relative to DMXAA alone (5-day growth delay) (MDAH-MCa-4 tumours [2]; mouse, in vivo)	factor lowering the DMXAA dose required for a 5-day growth delay (MDAH-MCa-4 tumours [2]; mouse, in vivo)	Tumour growth delay (one experiment only, column not discernible) (MDAH-MCa-4 tumours [2]; mouse, in vivo, ip) [days]
NCCc1c[nH]c2ccc(O)cc12 [5-HT, 5-hydroxytryptamine]	2.3	38	2.0	-2.9 + 0.7 days	> 3	little effect	weak and transient inhibition	–	–	–	–	–	–	–	–	–
Cc1ccc2c(=O)c3cccc(CC(=O)O)c3oc2c1C [DMXAA, 5,6-dimethylxanthenone-4-acetic acid]	–	–	–	–	–	–	progressive inhibition over 4 h with no recovery by 24 h	> 99	approximately 60 µmol kg-1	1.0	6.0 days and 5.8 days	≤ 1	60	–	–	–
Nc1n[n+]([O-])c2ccccc2[n+]1[O-] [TIRA, tirapazamine]	–	–	–	–	–	–	–	–	–	–	–	–	–	2.6	1.8	2.7 ± 1.4
